In patent US10800752B2, “Substituted naphtho[2,3-b]furans as water-soluble prodrugs for preventing and/or treating cancer” (BOSTON BIOMEDICAL, INC., priority 2015, dated 2020):
Where a name gives a salt, the structure may show the parent alone.

Assays:
[1] = Evaluation of a conversion rate to 2-acetylnaphtho[2,3-b]furan-4,9-dione in CD1 mouse plasma; assay type: in vitro ADME; settings: 1 umol/L
Experimental: (§1) For test compounds, the decrease rate of the test compounds and the conversion rate thereof to 2-acetylnaphtho[2,3-b]furan-4,9-dione in human plasma, CD1 mouse plasma, and pH 7.4 phosphate buffer solution were measured.
(§2) Test compounds were incubated at the concentration of 1 umol/L in human plasma (cat. no. 12250210, COSMO BIO), CD1 mouse plasma (cat. no. AP3054, KAC), and phosphate buffer solution at 37° C., and removed at predetermined times (0, 5, 10, 30, 60, and 120 minutes). After protein-removing treatment was performed, they are analyzed with LC-MS. It should be noted that the protein-removing treatment used acetonitrile containing: 10% volume of 1 mol/L hydrochloric acid; 1% volume of 46% citric acid; and phenytoin as an internal standard.
(§3) The measurement condition of LC-MS is as described below. LC-MS condition column: Kinetex 2.6 u PFP 100 A 50×2.1 mm Column temperature: 40° C.
(§4) Mobile phase: A: 0.1% formic acid-containing water
(§5) • B: 0.1% formic acid-containing acetonitrile A/B(min): 95/5(0)→5/95(3)→5/95(4)→95/5(4.1)→95/5(6) Flow rate: 0.4 mL/min Detection: ESI (positive mode) Injection volume: 10 uL
Measurement values are calculated from the peak area ratio in LC-MS between an internal standard material, phenytoin and an active form, 2-acetylnaphtho[2,3-b]furan-4,9-dione, and are expressed in %.
In the same way as Example 6, the incubation time was set as 120 minutes later, and the conversion rate of each of various test compounds to 2-acetylnaphtho[2,3-b]furan-4,9-dione in human plasma, CD1 mouse plasma, and pH 7.4 phosphate buffer solution was measured. A series of the present compounds were confirmed to be converted to 2-acetylnaphtho[2,3-b]furan-4,9-dione in pH 7.4 phosphate buffer solution in addition to human plasma and CD1 mouse plasma. Therefore, a series of the test compounds of the present invention were confirmed to be converted to the activated form via a route other than an enzymatic conversion.

[2] = Evaluation of a conversion rate to 2-acetylnaphtho[2,3-b]furan-4,9-dione in pH 7.4 phosphate buffer solution; assay type: physicochemical; settings: Phosphate buffer solution (pH 7.4), 1 umol/L, 37° C., incubation time 120 min
Method in brief: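 Compounds at 1 umol/L were incubated at 37° C in human plasma, CD1 mouse plasma or pH 7.4 phosphate buffer, sampled up to 120 minutes, acid/acetonitrile-deproteinised and analysed by LC-MS (ESI positive). Conversion (%) derived from the peak area ratio of the active form to phenytoin internal standard.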

[3] = Evaluation of a conversion rate to 2-acetylnaphtho[2,3-b]furan-4,9-dione in human plasma; assay type: in vitro ADME; settings: 1 umol/L
Experimental: as §1, §2, §3, §4, §5
In the same way as Example 6, the incubation time was set as 120 minutes later, and the conversion rate of each of various test compounds to 2-acetylnaphtho[2,3-b]furan-4,9-dione in human plasma, CD1 mouse plasma, and pH 7.4 phosphate buffer solution was measured.

Solubility test = settings: 50 mmol/L glycine buffer solution (pH 2.0), room temperature, 24 hours shaking
Experimental: A water-soluble prodrug was added into 50 mmol/L glycine buffer solution (pH 2.0). After shaking at room temperature for 24 hours, the mixture was filtered through a membrane filter, and then the filtrate was measured with HPLC.
The measurement condition of HPLC is as described below. HPLC condition column: Acquity UPLC BEH C18, 1.7 um, 50×2.1 mm
Mobile phase: A: 0.1% trifluoroacetic acid-containing water

[4] = CD1 mouse plasma, 37° C., incubation time 120 min
[5] = Human plasma, 37° C., incubation time 120 min

SMILES	% Measurement value (conversion rate to 2-acetylnaphtho[2,3-b]furan-4,9-dione) [1, 4] [%]	% Measurement value (conversion rate to 2-acetylnaphtho[2,3-b]furan-4,9-dione) [2] [%]	% Measurement value (conversion rate to 2-acetylnaphtho[2,3-b]furan-4,9-dione) [3, 5] [%]	Solubility in pH 2.0 buffer solution (Solubility test) [mg/mL]	% Measurement value (conversion rate to 2-acetylnaphtho[2,3-b]furan-4,9-dione) ([1]; CD1, mouse, 120 min) [%]	% Measurement value (conversion rate to 2-acetylnaphtho[2,3-b]furan-4,9-dione) ([3]; human, 120 min) [%]
CC(=O)c1cc2c(OC(=O)NC3CNC3)c3ccccc3c(OC(=O)NC3CNC3)c2o1.Cl.Cl [Example 10]	59	58	89	>5.0		
CC(=O)c1cc2c(OC(=O)NCCN)c3ccccc3c(O)c2o1.Cl [Example 18]	73	80	81			
CC(=O)c1cc2c(OC(=O)OCCCCN)c3ccccc3c(OC(=O)OCCCCN)c2o1 [Example 21, 2-Acetylnaphtho[2,3-b]furan-4,9-diyl bis(4-aminobutyl)bis(carbonate)dihydrochloride]		24			44	40
CCNCCCCOC(=O)Oc1c2ccccc2c(OC(=O)OCCCCNCC)c2oc(C(C)=O)cc12.Cl.Cl [Example 28]	85	34	73			
COC(=O)[C@@H](N)CNC(=O)Oc1c2ccccc2c(OC(=O)NC[C@H](N)C(=O)OC)c2oc(C(C)=O)cc12.Cl.Cl [Example 32]	74	46	81	>5.0		
CC(=O)c1cc2c(OC(=O)NCCCCCNCC(=O)O)c3ccccc3c(OC(=O)NCCCCCNCC(=O)O)c2o1.Cl.Cl [Example 35]	70	38	78	>5.0		
COC(=O)CNCCNC(=O)Oc1c2ccccc2c(OC(=O)NCCNCC(=O)OC)c2oc(C(C)=O)cc12.Cl.Cl [Example 36]	66	46	73	>5.0		
CC(=O)c1cc2c(OC(=O)NCCCCCCN)c3ccccc3c(OC(=O)NCCCCCCN)c2o1.Cl.Cl [Example 37]	33	17	35	>5.0		
CC(=O)c1cc2c(OC(=O)NCCCCCCCN)c3ccccc3c(OC(=O)NCCCCCCCN)c2o1.Cl.Cl [Example 38]	72	39	85	>5.0		
CC(=O)c1cc2c(OC(=O)NCCCCCCCCN)c3ccccc3c(OC(=O)NCCCCCCCCN)c2o1.Cl.Cl [Example 39]	62	31	80	>5.0		
